A short description of data set [1]: Solubility of the isolated complex. In kind it is physicochemical. How it is done:
Cisplatin (300 mg, 1.00 mmol) or K2[PtCl4] (415 mg, 1.00 mmol) was added to 125 cm^3 of 9:1 CH3CN/H2O (v/v). The mixture was stirred at 90° C. Once the platinum compound was dissolved, 396 mg As2O3(2.00 mmol) was added to the solution, and the reaction mixture was stirred at 90° C. for 72 hours. The resulting mixture was filtered, and the filtrate was left at room temperature in a glass beaker for approximately 4 weeks until crystals formed. Crystals suitable for a single crystal X-ray analysis were retrieved from solution. The solution was filtered, washed with CH3CN:H2O (9:1 mixture), and the obtained crystals were dried in a dessicator. Yield 350 mg product (75%; 23% when cisplatin is used). […] Elemental analysis (% calcd., found for C7H18.5AsClN3.5O6Pt): C (15.20, 15.24), H (3.37, 3.36), N (8.86, 8.69). NMR: ^1H NMR (600 MHz, [D6]DMSO, 25° C.) δ: 8.91 (s, 2H—OH), 8.15 (s, 2H—NH), 2.13 (s, 6H—CH3). ^13C NMR (150 MHz, [D6]DMSO, 25° C.): δ 172.1 (C-1, C-3), 171.4 (C-5, C-7), 22.5 (C-6, C-8), 16.6 (C-2, C-4). ^15N NMR (60 MHz, from the ^1H-^15N HSQC, [D6]DMSO, referenced to ^15NH4Cl, 25° C.): δ 106.4 (N-1, N-2), ^195Pt NMR (129 MHz, [D6]DMSO, 25° C.), δ: −3589 (s, 1Pt) ppm. UV/Vis ((methanol-water=1:1): λ1=283 nm (ε=4062 dm^3 mol^−1 cm^−1), λ2=247 nm (ε=3621 dm^3 mol^−1 cm^−1), sh. 260 nm.
LC/ESI-MS data were recorded every 24 hours. The color gradually turned yellow and ultimately colorless over the 4 day period. The resulting mixture was filtered and left to sit (pH roughly 2) at 25° C., and, within a week, crystals suitable for single crystal X-ray analysis appeared. The solution was filtered again, washed with H2O, dried, and weighed (212 mg 44%).
Compound (1) obtained in Example 2 (100 mg 0.18 mmol) was dissolved in 4 cm^3 of methanol and added to an equal-molar solution of KSCN (17.6 mg 0.180 mmol) in 4 cm^3 of water. The reaction mixture was allowed to stir at 50° C. for 5 hours. The mixture was filtered and the solution was left standing at room temperature until crystals appeared. The obtained crystals were removed by filtration. Yield: 60.00 mg (52%). Elemental analysis (% calcd., found for PtC5H10N3O4SAs): C (12.56, 12.37), H (2.11, 1.97), N (8.78, 8.56). NMR data: ^1H NMR (600 MHz, [D6]DMSO): δ 2.21 (s, 6H, CH3), 7.70 (s, 2H, NH), 9.20 (s, 2H, OH). ^13C NMR (150 MHz, [D6]DMSO) δ 17.5 (CH3), 117.7 (SCN), 172.6 (CO); ^195Pt NMR (129 MHz, [D6]DMSO) δ −3861 ppm (s, 1Pt); UV/Vis (methanol-water=1:1): λ1=285 nm (ε=4217 dm^3 mol^−1 cm^−1); λ2=225 nm (ε=15919 dm^3 mol^−1 cm^−1), shoulder at 265 nm.

Data set [2] has as its system panel of human cancer cell lines. Put plainly: Anticancer activity in a panel of human cancer cell lines. In kind it is cell-based. How it is done: (§1) The MDA-MB-231-mCherry breast cancer cells were cultured in Dulbecco's modified Eagle's medium (DMEM) and supplemented with 5% heat-inactivated fetal bovine serum (FBS), 50 units/ml penicillin, 50 μg/ml streptomycin, 2 mM L-glutamine, and 1 μg/ml blasticidin S (Sigma). The A2780 and A2780^CP ovarian cancer cell lines and the multiple myeloma RPMI 8226 cell line were cultured in RPMI 1640 medium supplemented with 10% FBS, 50 units/ml penicillin, 50 μg/ml streptomycin, 2 mM L-glutamine. The U-87 and HTC-116 cancer cell lines were cultured without antibiotics. Cells were grown at 37° C. in a humidified atmosphere of 5% of CO2.
The cytotoxicities of compound (1), cisplatin, and As2O3 were assessed by MTS assay using the CellTiter 96 Aqueous MTS (Promega). The 100 μL aliquots of cell suspension (1.0×10^5 cells/ml) were plated in 96-well tissue culture plates in the incubator overnight at 37° C. in a humidified atmosphere of 5% of CO2. The serial dilutions of compound (1), cisplatin, and As2O3 in appropriate media were transferred to the cells. The MTS solution (20 μL) was added after 72 hours and the absorbance was measured at 495 nm 4 hours later. […] The plates were shaken for 2 minutes and allowed to sit for activation prior to reading for 10 minutes. Plates were read on Biotek Synergy H1 (Biotek, Wenooski, Vt.) reader capable of luminescence detection.

The subject of data set [3] is MDA-MB-231-mCherry breast cancer cells. In kind it is cell-based, human. Particulars: triple negative breast cancer; MTS after 72 hours; ±SD. How it is done: as §1
(§2) B. In Vitro Cytotoxicity Assay for MDA-MB-231mCherry, A270 and A2780CP Cancer Cell Lines.
(§3) The cytotoxicities of compound (1), cisplatin, and As2O3 were assessed by MTS assay using the CellTiter 96 Aqueous MTS (Promega). The 100 μL aliquots of cell suspension (1.0×10^5 cells/ml) were plated in 96-well tissue culture plates in the incubator overnight at 37° C. in a humidified atmosphere of 5% of CO2. The serial dilutions of compound (1), cisplatin, and As2O3 in appropriate media were transferred to the cells. The MTS solution (20 μL) was added after 72 hours and the absorbance was measured at 495 nm 4 hours later. Sigmoidal dose response curves were plotted using the GraphPad Prism software. The IC50 values were obtained on at least three independent experiments. In vitro cytotoxicity assay for U-87 and HTC-116 cancer cell line. For the experiment, cells were cultured in RPMI 1640 medium with 5% FBS and 2 mM L-glutamine. […] HCT-116 and U-87 cancer cell were plated in 96 well plates. The cells were plated in four replicates. The densities of the cells were 5000 and 10000 per well in 90 μL for HTC-116 and U-87, respectively. […] The cells were treated with 100, 10, 1, 0.1 0.01, 0.001, 0.0001, 0.00001 and 0.000001 μM of compound (1), cisplatin, and As2O3. After 48 hours post drug treatment all plates were allowed to equilibrate for 30 minutes at room temperature from incubator. Addition of 100 μL of Cell Titer Glow (Promega, Fitchburg, Wis.) reagent was added to the wells. The plates were shaken for 2 minutes and allowed to sit for activation prior to reading for 10 minutes. Plates were read on Biotek Synergy H1 (Biotek, Wenooski, Vt.) reader capable of luminescence detection.

For data set [4], the system named is A2780^CP ovarian cancer cell line (cisplatin resistant). In kind it is cell-based, human. The note with it: for IC50: ovarian cisplatin resistant, MTS after 72 hours, ±SD. How it is done: as §1, §2, §3
Data set [5] deals with A2780 ovarian cancer cell line (cisplatin sensitive). Description: In vitro cytotoxicity assay (MTS), A2780. The note with it: MTS after 72 hours, ±SD. In kind it is cell-based, human. How it is done:
as §1, §2
as §3, with “After 48 hours post drug treatment all plates were allowed to equilibrate for 30 minutes at room temperature from incubator. Addition of 100 μL of Cell Titer Glow (Promega, Fitchburg, Wis.) reagent was added to the wells.” left out

The test system of a further data set is glioblastoma U-87 cells. It is filed as cell-based, human. Particulars: Cell Titer Glow, 48 hours post drug treatment, ±SD. How it is done:
as §1, §3

The test system of data set [6] is multiple myeloma RPMI 8226 cell line. It is filed as cell-based, human. Particulars: ±SD. How it is done:
as §1, §3

The next data set relates to colon HCT-116 cells. It is filed as cell-based, human. Particulars: Cell Titer Glow, 48 hours post drug treatment, ±SD, read-out: IC50 values in μM (±SD), HTC−116. How it is done: as §1, §3
(In ATP-based viability assays light output follows the ATP content of the culture.)

Data set [7] in a line: Linkage isomerization in [D6]DMSO solution by NMR. It is filed as physicochemical. Particulars: compound (5) dissolved in [D6]DMSO, room temperature; S-isomer = compound (5), N-isomer = compound (6). An excerpt: Solution NMR and X-ray crystallography confirm that the Pt—As bond remained intact. Crystals suitable for a single crystal X-ray analysis were obtained when compound (5) was synthesized in a 1:1 water/methanol mixture, where the SCN^− ion is bound to Pt(II) through the sulfur atom (FIG. 1D). […] Assignments of chemical shifts for the S- and N-bound isomers signals are based on multidimensional ^195Pt and ^15N NMR spectroscopy on sample of compound (5) which is synthesized using thiocyanate enriched in ^13C and ^15N at 99% (FIG. 2).
Cisplatin, K2[PtCl4], DMSO, methanol, acetonitrile, propionitrile and As2O3 were purchased from Sigma-Aldrich and used without further purification. Media for the cell cultures and all other cell supplements were purchased from Invitrogen. The following spectrometers were used: NMR: Bruker Avance-III 600 and 500 MHz; chemical shifts (^1H, ^13C) were referenced to tetramethylsilane at 0.000 ppm ^1H and ^13C if it was present, and to residual solvent signal for samples in which TMS was absent (for [D6]DMSO, δH=2.50 ppm and δC=39.5 ppm). […] UV/Vis electron absorbance measurements were performed on a Perkin Elmer Lambda 650 spectrophotometer. […]

A word on the IC50: it is the midpoint of a concentration-inhibition curve.

Turning to “[Pt(μ-NHC(CH3CH2)O)2ClAs(OH)2] [Compound (2)]”, in data set [1], the “solubility in organic solvents” value is given as “soluble in methanol, DMSO” and the solubility in water result is “partially soluble in H2O”. The “anticancer activity in a panel of human cancer cell lines” value in [2] is recorded as “significant anticancer activity”.
For arsenic trioxide [As2O3], the concentration for half-maximal inhibition (IC50) is 11.9 ± 2.3 µM in data set [3]; 21.6 ± 1.4 µM in [4]; 17.1 ± 1.5 µM in data set [5]; 1.6 ± 2.9 µM with glioblastoma U-87 cells; 7.1 ± 0.2 µM in data set [6]; 9.4 ± 0.9 µM in the data set with colon HCT-116 cells.
Take “[Pt(μ-NHC(CH3)O)2ClAs(OH)2] [Compound (1)]”: in [1], the “solubility in organic solvents” value is “soluble in DMSO, methanol, ethanol”. Besides, in data set [1], the solubility in water entry is reported as “partially in water”. The IC50 in data set [3] was found to be 9.5 ± 0.1 µM; in data set [4] it was 21.4 ± 1.8 µM; in [5], 20.3 ± 4 µM; with glioblastoma U-87 cells it was 0.37 ± 0.11 µM; in data set [6] it was 4.5 ± 1 µM; in the data set on colon HCT-116 cells, 1.6 ± 0.4 µM. Further, the “resistance factor (RF)” value in data set [4] (ovarian A2780 and A2780^CP cell lines, RF value of <2 denotes no cross-resistance) stood at 1.1. Besides, the “anticancer activity in a panel of human cancer cell lines” value in [2] is listed as “significant anticancer activity”.
As to `N.N.[Cl][Pt][Cl]` [Cisplatin, Cis-diamminedichloroplatinum(II)], the IC50 is 22.3 ± 2.8 µM in data set [3]; 47.3 ± 2.1 µM in data set [4]; 3.1 ± 1.1 µM in data set [5]; 9.6 ± 0.8 µM with glioblastoma U-87 cells; 1.9 ± 0.1 µM in data set [6]; 5.5 ± 1.3 µM in the data set with colon HCT-116 cells.
Take “[Pt(μ-NHC(CH3)O)2(SCN)As(OH)2] [Compound (5)]”: the “share of isomer in equilibrium mixture” value in data set [7] is 64±1.2%. Further, the “solubility in organic solvents” value in data set [1] is “DMSO and methanol”.
For the molecule “[Pt(μ-NHC(CH3)O)2(NCS)As(OH)2] [Compound (6)]”, the “share of isomer in equilibrium mixture” value in data set [7] was found to be 36%.

The values above are taken from patent US10118938B2, “Arsenoplatin anti-cancer agents” (priority 2012, dated 2018).
